Source: patent US20200276186A1, “USE OF […] TREATING COCAINE ADDICTION, PRURITIS, AND SEIZURE DISORDERS” (PHOENIX […], INC., priority 2017, published 2020)

System: patient with atopic dermatitis
Test: Topical treatment of itching in atopic dermatitis
Format: in vivo
Conditions: human, indomethacin cream 7.5 mg/g at 75 μg/cm^2
Protocol: An aqueous solution (10-100 μg/ml) of a compound of Formula (I) is applied topically to the skin lesions on the arms or legs of a patient with atopic dermatitis which had caused severe itching (ranked as “+++” by the patient prior to treatment). The drug solution is applied on five spots with a volume of about 50 μl per 10 cm^2, which was equivalent to a topical dose of […]. As a control, indomethacin cream (concentration of 7.5 mg/g) applied at a dose of 75 μg/cm^2 in the same manner. Itching intensity is evaluated immediately after treatment, 5 minutes after treatment and at hourly time points for several hours following treatment. […] Itch relief typically continues for several hours following treatment.

**Q.** With `COc1ccc2c(c1)c(CC(=O)O)c(C)n2C(=O)c1ccc(Cl)cc1` [indomethecin, indomethacin] as the compound, how does the “Effect on itch (control)” value read?
**A.** Its value is “reduces but fails to eliminate itch”.
